Measured values as given in ChEMBL document CHEMBL1201862, “PubChem BioAssay data set” (2004).
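Compound exposure: 48 hours, 5 concentrations, 96-well plates. GI50 = concentration required for 50% inhibition of growth.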 Calls of active or inactive are those of the source. Rule as the data show it: active = GI50 up to about 1.1 µM and inactive = higher.

Tests used:
Test in all cases: NCI tumour cell line growth inhibition, 48 h
[1] = test system: LOX IMVI
[2] = test system: XF498
[3] = test system: COLO 205
[4] = test system: NCI-H460
[5] = test system: SK-MEL-5
[6] = test system: RXF 393
[7] = test system: K562
[8] = test system: MCF7
[9] = test system: SR
[10] = test system: Hs-578T
[11] = test system: PC-3
[12] = test system: UO-31
[13] = test system: UACC-62
[14] = test system: LXFL 529
[15] = test system: OVCAR-5
[16] = test system: NCI-H23
[17] = test system: TK-10
[18] = test system: HCT-15
[19] = test system: T47D
[20] = test system: MDA-MB-435
[21] = test system: A549
[22] = test system: ACHN
[23] = test system: Malme-3M
[24] = test system: MDA-MB-231
[25] = test system: HT-29
[26] = test system: SF-295
[27] = test system: SK-OV-3
[28] = test system: KM12
[29] = test system: HL-60
[30] = test system: NCI-H522
[31] = test system: KM-20L2
[32] = test system: RXF 631
[33] = test system: BT-549
[34] = test system: RPMI-8226
[35] = test system: OVCAR-4
[36] = test system: CAKI-1
[37] = test system: MDA-N
[38] = test system: OVCAR-8
[39] = test system: SK-MEL-28
[40] = test system: A498
[41] = test system: NCI-H226
[42] = test system: HCT-116
[43] = test system: SNB-78
[44] = test system: DMS-273
[45] = test system: OVCAR-3
[46] = test system: DU-145
[47] = test system: SK-MEL-2
[48] = test system: HOP-62
[49] = test system: EKVX
[50] = test system: DMS-114
[51] = test system: SNB-19
[52] = test system: U-251
[53] = test system: DLD-1
[54] = test system: M19-MEL
[55] = test system: UACC-257
[56] = test system: HOP-92
[57] = test system: HCC 2998
[58] = test system: IGROV-1
[59] = test system: HOP-18
[60] = test system: 786-0
[61] = test system: SF-268
[62] = test system: CCRF-CEM
[63] = test system: SW-620
[64] = test system: MOLT-4
[65] = test system: SN12C
[66] = test system: SNB-75
[67] = test system: M14
[68] = test system: SF-539

**Q.** How did the GI50 [1] turn out when `CCC/C(=N\NC(=S)N1CCN(c2ccccn2)CC1)c1ccccn1` was run?
**A.** Its GI50 is 25.8 nM (active).

**Q.** What about the GI50 [2] of the same compound?
**A.** Its GI50 is < 1 nM (active).

**Q.** And the GI50 [3]?
**A.** Its GI50 is 5.08 nM (active).

**Q.** What about the GI50 [4] of the same compound?
**A.** The GI50 was 36.2 nM (active).

**Q.** What about the GI50 [5] of the same compound?
**A.** The GI50 was 10.8 nM (active).

**Q.** What about the GI50 [6] of the same compound?
**A.** Its GI50 is 269 nM (active).

**Q.** What about the GI50 [7] of the same compound?
**A.** The GI50 was 1.17 nM (active).

**Q.** What about the GI50 [8] of the same compound?
**A.** The GI50 was 4.57 nM (active).

**Q.** And the GI50 [9]?
**A.** The GI50 was 1.91 nM (active).

**Q.** What about the GI50 [10] of the same compound?
**A.** The GI50 was 213 nM (active).

**Q.** What about the GI50 [11] of the same compound?
**A.** Its GI50 is 15.2 nM (active).

**Q.** And the GI50 [12]?
**A.** The GI50 was 70.2 nM (active).

**Q.** What about the GI50 [13] of the same compound?
**A.** The GI50 was 3.6 nM (active).

**Q.** What about the GI50 [14] of the same compound?
**A.** Its GI50 is < 1 nM (active).

**Q.** What about the GI50 [15] of the same compound?
**A.** The GI50 was 610 nM (active).

**Q.** What about the GI50 [16] of the same compound?
**A.** Its GI50 is 8.81 nM (active).

**Q.** And the GI50 [17]?
**A.** The GI50 was 335 nM (active).

**Q.** And the GI50 [18]?
**A.** Its GI50 is 5.28 nM.

**Q.** And the GI50 [19]?
**A.** Its GI50 is 2.48 nM (active).

**Q.** What about the GI50 [20] of the same compound?
**A.** Its GI50 is 133 nM (active).

**Q.** And the GI50 [21]?
**A.** Its GI50 is 118 nM (active).

**Q.** What about the GI50 [22] of the same compound?
**A.** The GI50 was 20.7 nM (active).

**Q.** What about the GI50 [23] of the same compound?
**A.** Its GI50 is 20.5 nM (active).

**Q.** What about the GI50 [24] of the same compound?
**A.** The GI50 was 31.1 nM (active).

**Q.** And the GI50 [25]?
**A.** The GI50 was 1.37 nM (active).

**Q.** What about the GI50 [26] of the same compound?
**A.** Its GI50 is 9.79 nM (active).

**Q.** And the GI50 [27]?
**A.** Its GI50 is 437 nM (active).

**Q.** And the GI50 [28]?
**A.** The GI50 was 14.6 nM (active).

**Q.** What about the GI50 [29] of the same compound?
**A.** Its GI50 is < 1 nM (active).

**Q.** And the GI50 [30]?
**A.** Its GI50 is 41.3 nM (active).

**Q.** What about the GI50 [31] of the same compound?
**A.** The GI50 was < 1 nM (active).

**Q.** And the GI50 [32]?
**A.** The GI50 was 133 nM (active).

**Q.** What about the GI50 [33] of the same compound?
**A.** The GI50 was 21.2 nM (active).

**Q.** What about the GI50 [34] of the same compound?
**A.** The GI50 was 1.15 nM (active).

**Q.** What about the GI50 [35] of the same compound?
**A.** Its GI50 is 191 nM (active).

**Q.** And the GI50 [36]?
**A.** Its GI50 is 179 nM (active).

**Q.** What about the GI50 [37] of the same compound?
**A.** The GI50 was 157 nM (active).

**Q.** And the GI50 [38]?
**A.** The GI50 was 3.14 nM (active).

**Q.** And the GI50 [39]?
**A.** The GI50 was 367 nM (active).

**Q.** What about the GI50 [40] of the same compound?
**A.** Its GI50 is 541 nM (active).

**Q.** And the GI50 [41]?
**A.** Its GI50 is 1060 nM (active).

**Q.** What about the GI50 [42] of the same compound?
**A.** The GI50 was 1.22 nM (active).

**Q.** What about the GI50 [43] of the same compound?
**A.** The GI50 was 583 nM (active).

**Q.** And the GI50 [44]?
**A.** The GI50 was 1.17 nM (active).

**Q.** What about the GI50 [45] of the same compound?
**A.** The GI50 was 32.5 nM (active).

**Q.** And the GI50 [46]?
**A.** The GI50 was 1130 nM (inactive).

**Q.** And the GI50 [47]?
**A.** The GI50 was 115 nM (active).

**Q.** And the GI50 [48]?
**A.** Its GI50 is 141 nM (active).

**Q.** What about the GI50 [49] of the same compound?
**A.** Its GI50 is 7.29 nM (active).

**Q.** What about the GI50 [50] of the same compound?
**A.** The GI50 was < 1 nM (active).

**Q.** And the GI50 [51]?
**A.** Its GI50 is 14.2 nM (active).

**Q.** What about the GI50 [52] of the same compound?
**A.** Its GI50 is 3.12 nM (active).

**Q.** What about the GI50 [53] of the same compound?
**A.** Its GI50 is < 1 nM (active).

**Q.** And the GI50 [54]?
**A.** The GI50 was 36.6 nM (active).

**Q.** What about the GI50 [55] of the same compound?
**A.** Its GI50 is 3.87 nM (active).

**Q.** What about the GI50 [56] of the same compound?
**A.** The GI50 was 233 nM (active).

**Q.** What about the GI50 [57] of the same compound?
**A.** The GI50 was 59.4 nM (active).

**Q.** And the GI50 [58]?
**A.** Its GI50 is 2.34 nM (active).

**Q.** And the GI50 [59]?
**A.** The GI50 was 8.87 nM (active).

**Q.** What about the GI50 [60] of the same compound?
**A.** The GI50 was 25.1 nM (active).

**Q.** And the GI50 [61]?
**A.** Its GI50 is 236 nM (active).

**Q.** Which results are given for `CN(C)c1ccc2nc3c(ccc4ccccc43)[o+]c2c1`?
**A.** GI50 [1]: 6000 nM (inactive); GI50 [2]: 14400 nM (inactive); GI50 [3]: 16300 nM (inactive); GI50 [4]: 16200 nM (inactive); GI50 [5]: 13400 nM (inactive); GI50 [6]: 13300 nM (inactive); GI50 [7]: 2740 nM (inactive); GI50 [9]: 3420 nM (inactive); GI50 [12]: 17700 nM (inactive); GI50 [13]: 11500 nM (inactive); GI50 [14]: 6530 nM (inactive); GI50 [15]: 21900 nM (inactive); GI50 [16]: 14000 nM (inactive); GI50 [17]: 17300 nM (inactive); GI50 [18]: 11800 nM; GI50 [21]: 18700 nM (inactive); GI50 [22]: 13800 nM (inactive); GI50 [23]: 12900 nM (inactive); GI50 [25]: 15300 nM (inactive); GI50 [26]: 15500 nM (inactive); GI50 [62]: 3170 nM (inactive); GI50 [27]: 15700 nM (inactive); GI50 [28]: 15000 nM (inactive); GI50 [29]: 1950 nM (inactive); GI50 [63]: 3200 nM (inactive); GI50 [30]: 2520 nM (inactive); GI50 [31]: 13800 nM (inactive); GI50 [32]: 7910 nM (inactive); GI50 [64]: 2990 nM (inactive); GI50 [34]: 3480 nM (inactive); GI50 [35]: 12800 nM (inactive); GI50 [36]: 15500 nM (inactive); GI50 [65]: 17100 nM (inactive); GI50 [66]: 17500 nM (inactive); GI50 [38]: 12400 nM (inactive); GI50 [39]: 14800 nM (inactive); GI50 [67]: 11000 nM (inactive); GI50 [40]: 17800 nM (inactive); GI50 [41]: 17700 nM (inactive); GI50 [42]: 5970 nM (inactive); GI50 [68]: 18200 nM (inactive); GI50 [43]: 14600 nM (inactive); GI50 [44]: 17900 nM (inactive); GI50 [45]: 3890 nM (inactive); GI50 [47]: 19600 nM (inactive); GI50 [48]: 19000 nM (inactive); GI50 [49]: 20900 nM (inactive); GI50 [50]: 19300 nM (inactive); GI50 [51]: 17700 nM (inactive); GI50 [52]: 16100 nM (inactive); GI50 [53]: 5510 nM (inactive); GI50 [54]: 3030 nM (inactive); GI50 [55]: 4670 nM (inactive); GI50 [56]: 18300 nM (inactive); GI50 [57]: 17500 nM (inactive); GI50 [58]: 12300 nM (inactive); GI50 [59]: 10100 nM (inactive); GI50 [60]: 15500 nM (inactive); GI50 [61]: 15800 nM (inactive)
